Assay results: paper PMC12657942, “Measurement and modeling of rizatriptan in supercritical CO2 for pharmaceutical processing” (Scientific Reports, 2025)
≈ marks a conversion by molar mass, not a printed value.

Tests used:
Assay type in all cases: physicochemical
[1] = Solubility of rizatriptan in supercritical CO2, static gravimetric method
Description: (§1) A specialized high-pressure system is employed to measure the solubility of rizatriptan using gravimetric techniques in a supercritical CO2[6]. A 200 mL vessel capable of withstanding pressures up to 35 MPa and temperatures up to 423 K is prepared with leak-free seals, valves, and fittings. All valves and connectors were 1/8 inch in size. The system’s pressure and temperature sensors are calibrated for accuracy. Next, 2000 mg of rizatriptan powder is weighed precisely using an analytical balance with 0.01 mg of sensitivity. The powder is then compacted into 5-mm diameter tablets to ensure uniformity and structural integrity. The tablets are placed in a basket inside the vessel to maximize their exposure to SC-CO2. CO2 is introduced gradually using a high-precision pump (SC-1000, SUPEREX), with the pressure increased in 0.05 MPa increments to maintain stability. The pressure is monitored and held within ± 0.01 MPa. Temperature is controlled within ± 0.1 K using a thermocouple, and the mixture is stirred at 250 rpm to ensure uniformity. […] The pressure and temperature indicators are checked to ensure stability. After equilibration, the vessel is carefully depressurized to ambient conditions to halt dissolution without losing the sample. The remaining tablets are then removed and cleaned of residual CO2. If needed, they are dried in a desiccator. The undissolved drug is weighed using a high-precision balance. The experiment is replicated at least three times to calculate the mean solubility and standard deviation. The following formula was used to calculate the mass of dissolved rizatriptan:1
Include the molecular weights of rizatriptan ([…]) and CO2 (44.01 g/mol) in the mole fraction calculations.2 3 4 5
The measurements were conducted at four isotherms (308.2 K, 318.2 K, 328.2 K, and 338.2 K) and […] pressure points (12, 15, 18, 21, 24, 27, 30 MPa). Table 3 documents the experimental conditions, including temperature, pressure, SC-CO2 density, mole fraction, standard deviation, and solubility in grams per liter.

[2] = Preliminary tests of equilibration time for solubility in SC-CO2 (Table S1); conditions: supercritical CO2, 65 °C, organic solvent or mixture, thermodynamic from solid, read-out: Solubility (preliminary test)
Description: as §1
Table S1. Preliminary tests.

[3] = Enthalpies (total, vaporization, solvation) derived from density-based solubility models; conditions: SC-CO2
Description: This study thoroughly examines the solubility of rizatriptan in SC-CO2 for pharmaceutical processing by supercritical fluid technology. A series of experimental solubility measurements were conducted at a range of temperatures, from 308.2 to 338.2 K, and pressures ranging from 12 to 30 megapascals. Seven density-based models ( Chrastil, Bartle, K–J, Méndez–Santiago–Teja, Bian et al., and Sodeifian et al. (Ⅰ and Ⅱ)) and three equations of state (Peng–Robinson, Soave–Redlich–Kwong, and regular solution) were employed to analyze the resulting data. Additionally, the enthalpies of the total, vaporization, and solvation processes were derived to elucidate phase behavior.
This leads to the logarithmic relationship, where the enthalpy term combines solvation and vaporization effects
The Bartle model extends the concept by normalizing solubility with pressure and using a reduced density term, allowing direct estimation of the solute’s heat of vaporization from parameter. […] The MST model was derived from a Taylor expansion of the Helmholtz free energy near the solvent’s critical point, focusing on infinite dilution behavior. By incorporating the Clausius–Clapeyron equation for missing sublimation pressure data, it becomes a robust three-parameter tool. It excels in self-consistency checks, where plotting ) against density (ρ), should yield a single line for reliable data. […]

Work on `CN(C)CCc1c[nH]c2ccc(Cn3cncn3)cc12` [Rizatriptan, Rizatriptan benzoate] yielded a solubility at 240 min ([1]; supercritical CO2, 308.2 K to 338.2 K, 12 to 30 MPa, read-out: solubility (dissolution concentration) in SC-CO2, range over all conditions) of 8 to 302 µg/mL (≈ 29.7 to 1120 µM), a solubility at 240 min ([1]; supercritical CO2, T 308.0 K (text 308.2 K), P 12 MPa, ρCO2 768.52 kg/m^3, read-out: Solubility in supercritical carbon dioxide) of 61.6 µg/mL (≈ 229 µM) and a solubility at 240 min ([1]; supercritical CO2, T 308.0 K (text 308.2 K), P 15 MPa, ρCO2 816.10 kg/m^3, read-out: Solubility in supercritical carbon dioxide) of 88 µg/mL (≈ 327 µM). The solubility at 240 min ([1]; supercritical CO2, T 308.0 K (text 308.2 K), P 18 MPa, ρCO2 816.10 kg/m^3, read-out: Solubility in supercritical carbon dioxide) was 107 µg/mL (≈ 396 µM), the solubility at 240 min ([1]; supercritical CO2, T 308.0 K (text 308.2 K), P 21 MPa, ρCO2 874.55 kg/m^3, read-out: Solubility in supercritical carbon dioxide) was 138 µg/mL (≈ 512 µM) and the solubility at 240 min ([1]; supercritical CO2, T 308.0 K (text 308.2 K), P 24 MPa, ρCO2 895.66 kg/m^3, read-out: Solubility in supercritical carbon dioxide) was 181 µg/mL (≈ 672 µM). It also gave a solubility at 240 min ([1]; supercritical CO2, T 308.0 K (text 308.2 K), P 27 MPa, ρCO2 913.70 kg/m^3, read-out: Solubility in supercritical carbon dioxide) of 210 µg/mL (≈ 779 µM), a solubility at 240 min ([1]; supercritical CO2, T 308.0 K (text 308.2 K), P 30 MPa, ρCO2 929.85 kg/m^3, read-out: Solubility in supercritical carbon dioxide) of 237 µg/mL (≈ 878 µM) and a solubility at 240 min ([1]; supercritical CO2, T 318.0 K (text 318.2 K), P 12 MPa, ρCO2 659.80 kg/m^3, read-out: Solubility in supercritical carbon dioxide) of 40.6 µg/mL (≈ 151 µM). It also gave a solubility at 240 min ([1]; supercritical CO2, T 318.0 K (text 318.2 K), P 15 MPa, ρCO2 743.83 kg/m^3, read-out: Solubility in supercritical carbon dioxide) of 83.5 µg/mL (≈ 310 µM), a solubility at 240 min ([1]; supercritical CO2, T 318.0 K (text 318.2 K), P 18 MPa, ρCO2 790.29 kg/m^3, read-out: Solubility in supercritical carbon dioxide) of 114 µg/mL (≈ 423 µM) and a solubility at 240 min ([1]; supercritical CO2, T 318.0 K (text 318.2 K), P 21 MPa, ρCO2 823.80 kg/m^3, read-out: Solubility in supercritical carbon dioxide) of 158 µg/mL (≈ 585 µM). For the same compound, the solubility at 240 min ([1]; supercritical CO2, T 318.0 K (text 318.2 K), P 24 MPa, ρCO2 850.15 kg/m^3, read-out: Solubility in supercritical carbon dioxide) was 213 µg/mL (≈ 790 µM), the solubility at 240 min ([1]; supercritical CO2, T 318.0 K (text 318.2 K), P 27 MPa, ρCO2 872.14 kg/m^3, read-out: Solubility in supercritical carbon dioxide) was 250 µg/mL (≈ 928 µM) and the solubility at 240 min ([1]; supercritical CO2, T 318.0 K (text 318.2 K), P 30 MPa, ρCO2 890.90 kg/m^3, read-out: Solubility in supercritical carbon dioxide) was 269 µg/mL (≈ 998 µM). The solubility at 240 min ([1]; supercritical CO2, T 328.0 K (text 328.2 K), P 12 MPa, ρCO2 506.75 kg/m^3, read-out: Solubility in supercritical carbon dioxide) was 20.4 µg/mL (≈ 75.7 µM), the solubility at 240 min ([1]; supercritical CO2, T 328.0 K (text 328.2 K), P 15 MPa, ρCO2 654.94 kg/m^3, read-out: Solubility in supercritical carbon dioxide) was 57.8 µg/mL (≈ 215 µM) and the solubility at 240 min ([1]; supercritical CO2, T 328.0 K (text 328.2 K), P 18 MPa, ρCO2 724.13 kg/m^3, read-out: Solubility in supercritical carbon dioxide) was 114 µg/mL (≈ 421 µM). The solubility at 240 min ([1]; supercritical CO2, T 328.0 K (text 328.2 K), P 21 MPa, ρCO2 768.74 kg/m^3, read-out: Solubility in supercritical carbon dioxide) was 165 µg/mL (≈ 613 µM), the solubility at 240 min ([1]; supercritical CO2, T 328.0 K (text 328.2 K), P 24 MPa, ρCO2 801.92 kg/m^3, read-out: Solubility in supercritical carbon dioxide) was 216 µg/mL (≈ 800 µM) and the solubility at 240 min ([1]; supercritical CO2, T 328.0 K (text 328.2 K), P 27 MPa, ρCO2 828.51 kg/m^3, read-out: Solubility in supercritical carbon dioxide) was 260 µg/mL (≈ 966 µM). For the same compound, the solubility at 240 min ([1]; supercritical CO2, T 328.0 K (text 328.2 K), P 30 MPa, ρCO2 850.83 kg/m^3, read-out: Solubility in supercritical carbon dioxide) was 288 µg/mL (≈ 1070 µM), the solubility at 240 min ([1]; supercritical CO2, T 338.0 K (text 338.2 K), P 12 MPa, ρCO2 384.17 kg/m^3, read-out: Solubility in supercritical carbon dioxide) was 8.3 µg/mL (≈ 30.8 µM) and the solubility at 240 min ([1]; supercritical CO2, T 338.0 K (text 338.2 K), P 15 MPa, ρCO2 555.33 kg/m^3, read-out: Solubility in supercritical carbon dioxide) was 67.5 µg/mL (≈ 251 µM). For the same compound, the solubility at 240 min ([1]; supercritical CO2, T 338.0 K (text 338.2 K), P 18 MPa, ρCO2 651.28 kg/m^3, read-out: Solubility in supercritical carbon dioxide) was 124 µg/mL (≈ 459 µM), the solubility at 240 min ([1]; supercritical CO2, T 338.0 K (text 338.2 K), P 21 MPa, ρCO2 709.59 kg/m^3, read-out: Solubility in supercritical carbon dioxide) was 176 µg/mL (≈ 655 µM) and the solubility at 240 min ([1]; supercritical CO2, T 338.0 K (text 338.2 K), P 24 MPa, ρCO2 751.27 kg/m^3, read-out: Solubility in supercritical carbon dioxide) was 223 µg/mL (≈ 829 µM). For the same compound, the solubility at 240 min ([1]; supercritical CO2, T 338.0 K (text 338.2 K), P 27 MPa, ρCO2 783.19 kg/m^3, read-out: Solubility in supercritical carbon dioxide) was 270 µg/mL (≈ 1000 µM), the solubility at 240 min ([1]; supercritical CO2, T 338.0 K (text 338.2 K), P 30 MPa, ρCO2 809.68 kg/m^3, read-out: Solubility in supercritical carbon dioxide) was 302 µg/mL (≈ 1120 µM) and the solubility at 60 min ([2]; T 338, P 30, Time 60) was 78.8 ± 0.7 µg/mL (≈ 293 µM). It also gave a solubility at 90 min ([2]; T 338, P 30, Time 90) of 167.6 ± 0.8 µg/mL (≈ 622 µM), a solubility at 120 min ([2]; T 338, P 30, Time 120) of 212.9 ± 0.8 µg/mL (≈ 790 µM) and a solubility at 150 min ([2]; T 338, P 30, Time 150) of 279 ± 1.1 µg/mL (≈ 1040 µM). For the same compound, the solubility at 180 min ([2]; T 338, P 30, Time 180) was 285.8 ± 1.2 µg/mL (≈ 1060 µM), the solubility at 210 min ([2]; T 338, P 30, Time 210) was 301.8 ± 1.4 µg/mL (≈ 1120 µM) and the solubility at 240 min ([2]; T 338, P 30, Time 240) was 301.8 ± 1.5 µg/mL (≈ 1120 µM). For the same compound, the enthalpy of vaporization [3] was 12.08 kcal/mol and the “overall (total) enthalpy” value [3] was 9.097 kcal/mol.
